Holding throughout (assay type): physicochemical
The nature of data set [1]: Absorption spectrum in chloroform (maximum absorption wavelength, gram absorption coefficient, 550/525 nm coefficient ratio). Conditions: for εg (gram absorption coefficient) / λmax: chloroform solution; for Ratio of Absorption Coefficient at 525 nm and 550 nm: coefficient at 550 nm to coefficient at 525 nm. The procedure:
(§1) Compounds represented by the compound Nos. 1-1, 1-2, 1-3, 1-4 and 1-7 (Table 1-1) were synthesized in the same manner as in Examples 1-1 and 1-2. With respect to compounds synthesized in Example 1-2 and Synthesis Example 1-1 along with these compounds, the maximum absorption wavelength (λmax), the gram absorption coefficient (εg) and solubility were measured.
(§2) λmax and εg are values in the chloroform solution, while the solubility is weight % based on acetone.
With respect to the compounds represented by the compound Nos. 1-2, 1-3, 1-6 and 1-7 synthesized in Examples 1-2 and 1-3 (corresponding to compounds (3-B), (3-C), (3-E) and (3-F) respectively) along with the obtained compound (3-A), the maximum absorption wavelength and the ratio of the absorption coefficient at a wavelength of 550 nm to the absorption coefficient at a wavelength of 525 nm, which were measured in a chloroform solvent, are shown in Table 3-1. [drawing 26] [drawing 27] [drawing 28] [drawing 29]

Data set [2] can be described thus: Solubility in acetone. Further details: key: ∘: completely dissolved; x: not completely dissolved. The settings on record: for Solubility 0.1%: 0.1 weight % based on acetone; for Solubility 0.2%: 0.2 weight % based on acetone; for Solubility 1.0%: 1.0 weight % based on acetone. The procedure:
as §1, §2

A short description of data set [3]: Light resistance test / artificial sunlight irradiation test of optical filter. Conditions: visible light 380 to 780 nm, 50 mW/cm^2, 250 hours, 30±10° C., humidity 50±20%. The procedure: To evaluate light resistance of the dye, a sample prepared in the same method as in evaluation of heat resistance is used. The absorption retention rate represented by the above equation (1) is measured in the same manner as in heat resistance. However, in this case, the obtained sample is not kept under the environment of 80° C., but the above visible light ray is irradiated on a side of the ultraviolet blocking film of the sample in a room at a temperature of 30±10° C., a humidity of 50±20% for a predetermined time. Tmax,1 represents light transmittance in a maximum absorption wavelength after the above visible light ray is irradiated for a predetermined time. When there are a plurality of absorption maxima, Tmax,0 is light transmittance at a maximum absorption wavelength showing the highest absorption coefficient. Tmax,1 represents light transmittance at the same wavelength as that in Tmax,0 or at a maximum absorption wavelength nearest to the wavelength in Tmax,0.
With respect to the optical filters obtained from the compounds (3-A) to (3-F), environmental accelerated tests were carried out by artificial sunlight irradiation using a solar simulator (manufactured by Ushio Inc.). A visible light ray in a wavelength of from 380 to 780 nm was irradiated on the ultraviolet blocking film of the prepared optical filter at 50 mW/cm^2 for 250 hours in a room at a temperature of 30±10° C. and a humidity of 50±20%. At this time, an absorption retention rate represented by the above equation (1) was obtained.
With respect to the optical filters obtained from the compounds (3-A) and (3-B), environmental accelerated tests of high temperature, high-temperature/high-humidity and artificial sunlight irradiation were carried out. In the test, a constant temperature chamber at 80° C. (DN-61, manufactured by Yamato Scientific Co., Ltd.), a constant temperature and humidity chamber at 60° C. and 90% RH (Product name, FX2200, manufactured by Kusumoto Chemicals, Ltd.) and a solar simulator (manufactured by Ushio Inc.) were respectively used. A visible light ray in a wavelength of from 380 to 780 nm was irradiated on a surface of the ultraviolet blocking film of the above optical filter at 50 mW/cm^2 for a predetermined time in a room at a temperature of 30±10° C. and a humidity of 50±20%.
The above optical filters were kept under each environmental condition for 500 hours and 1000 hours, and light transmittance of the optical filter was measured by using the spectrophotometer after 500 hours and 1000 hours. An absorption retention rate in a maximum absorption wavelength after each environmental accelerated test was obtained from the above equation (2).

Data set [4] is described as follows: Light transmittance of optical filter (dye-containing acrylic adhesive sheet, 1000 ppm dye). Conditions: dye 1000 (wt)ppm in acrylic adhesive, 25 μm. The procedure:
When the compound (3-A) was dispersed and dissolved in a solvent of ethyl acetate and toluene (weight ratio 50:50) and dried, a dye-containing diluting agent for an acrylic adhesive was prepared such that the dye concentration in the resin was 1000 (wt)ppm. Subsequently, the acrylic adhesive (a copolymer of butyl acrylate and acrylic acid (Product name: DBBOND, manufactured by Diabond Industry Co., Ltd.)) and a dye-containing diluting agent were mixed (weight ratio 80:20), and continuously applied on a mold releasing layer of a mold releasing film comprising a polyethylene terephthalate film and a silicone mold releasing layer according to a bar coating method, and the resulting material was dried. Then, the other mold releasing film was attached to the coating surface to prepare a dye-containing adhesive sheet having a thickness of 25 μm with mold releasing films having different mold releasing forces at both sides.
The mold releasing film on one side of the prepared adhesive sheet was peeled away and the resulting sheet was attached to a transparent acrylic resin (manufactured by Mitsubishi Rayon Co., Ltd., Acrylite, thickness: 2 mm), while the mold releasing film on the other side thereof was further peeled away and an ultraviolet blocking film (manufactured by Teijin Co., Ltd., HB Film, thickness: 75 μm) was attached to prepare an optical filter.
With respect to the obtained optical filter, the light transmittance in a wavelength of from 300 to 800 nm was measured by using a spectrophotometer (Product name: U-3400, manufactured by Hitachi, Ltd.) in accordance with JIS R3106. A percentage of light transmittance at a wavelength of 550 nm to light transmittance at a wavelength of 525 nm was obtained.

The text below walks through data of patent US20070293666A1, “Optical Filter and Its Applications, and Porphyrin Compound Used in Optical Filter” (Mitsui Chemicals, Inc., priority 2004, published 2007).

In the case of `CCCCOc1ccc(C2=c3nc(c4c5cccc6cccc(c3=4)c65)C(c3ccc(OCCCC)cc3)=c3c4c(c5[n]3[Cu][n]3c2c2c(c3C(c3ccc(OCCCC)cc3)=c3nc(c6c7cccc8cccc(c3=6)c87)C=5c3ccc(OCCCC)cc3)-c3cccc5cccc-2c35)-c2cccc3cccc-4c23)cc1` [1-1], in data set [1], the “εg (gram absorption coefficient)” value is listed as 162,000 and the λmax came out at 553 nm. For the same compound, in data set [2], the “Solubility 0.1%” value is on record as “∘”, the “Solubility 0.2%” value is “∘” and the “Solubility 1.0%” value is given as “x”.

Turning to `CCCCCCOc1ccc(C2=c3nc(c4c5cccc6cccc(c3=4)c65)C(c3ccc(OCCCCCC)cc3)=c3c4c(c5[n]3[Cu][n]3c2c2c(c3C(c3ccc(OCCCCCC)cc3)=c3nc(c6c7cccc8cccc(c3=6)c87)C=5c3ccc(OCCCCCC)cc3)-c3cccc5cccc-2c35)-c2cccc3cccc-4c23)cc1` [1-3], in data set [3], the “Absorption Retention after Light resistance test for 250 hours” value (“Absorption Retention” below) worked out at 80%. Moreover, in data set [1], the “εg (gram absorption coefficient)” value is reported as 122,000 and the λmax stood at 553 nm. In data set [1] (chloroform solvent), the “Maximum Absorption Wavelength” value is recorded as 553 nm; the “Ratio of Absorption Coefficient at 525 nm and 550 nm” value (“Ratio of Absorption Coefficient” for short) stood at 2.3. In data set [4], the “Light Transmittance at 525 nm” value was 69.1%, the “Light Transmittance at 550 nm” value is reported as 49.8% and the “T@550/T@525 Light Transmittance Ratio” value was 72%. Besides, in data set [2], the “Solubility 0.1%” value is “∘”, the “Solubility 0.2%” value is reported as “∘” and the “Solubility 1.0%” value is “∘”.

Take `CCCCCCCCCCOc1ccc(C2=c3nc(c4c5cccc6cccc(c3=4)c65)C(c3ccc(OCCCCCCCCCC)cc3)=c3c4c(c5[n]3[Ni][n]3c2c2c(c3C(c3ccc(OCCCCCCCCCC)cc3)=c3nc(c6c7cccc8cccc(c3=6)c87)C=5c3ccc(OCCCCCCCCCC)cc3)-c3cccc5cccc-2c35)-c2cccc3cccc-4c23)cc1` [1-6]: the “Absorption Retention” value in data set [3] came to 97%. Also, in data set [1], the “εg (gram absorption coefficient)” value is listed as 135,000 and the λmax came out at 536 nm. Further, in data set [1] (chloroform solvent), the “Maximum Absorption Wavelength” value turned out to be 536 nm; the “Ratio of Absorption Coefficient” value came out at 1.2. For the same compound, in data set [1] (in chloroform), the Maximum Absorption Wavelength was determined as 536 nm and the gram absorption coefficient is 135,000. In addition, in data set [4], the “Light Transmittance at 525 nm” value came out at 61.7%, the “Light Transmittance at 550 nm” value stood at 57.5% and the “T@550/T@525 Light Transmittance Ratio” value is listed as 93%. Also, in data set [2], the “Solubility 0.1%” value is reported as “∘”, the “Solubility 0.2%” value is “∘” and the “Solubility 1.0%” value is recorded as “∘”.

For the compound `CCCCCCCCCCOc1ccc(C2=c3nc(c4c5ccc(Cl)c6c(Cl)ccc(c3=4)c65)C(c3ccc(OCCCCCCCCCC)cc3)=c3c4c(c5[n]3[Ni][n]3c2c2c(c3C(c3ccc(OCCCCCCCCCC)cc3)=c3nc(c6c7ccc(Cl)c8c(Cl)ccc(c3=6)c87)C=5c3ccc(OCCCCCCCCCC)cc3)-c3ccc(Cl)c5c(Cl)ccc-2c35)-c2ccc(Cl)c3c(Cl)ccc-4c23)cc1` [1-7], in data set [3], the “Absorption Retention” value is 94%. For the same compound, in data set [1], the “εg (gram absorption coefficient)” value is recorded as 122,000 and the λmax was 552 nm. Further, in data set [1] (chloroform solvent), the “Maximum Absorption Wavelength” value is listed as 552 nm; the “Ratio of Absorption Coefficient” value was determined as 1.4. For the same compound, in data set [4], the “Light Transmittance at 525 nm” value is given as 72.0%, the “Light Transmittance at 550 nm” value is 66.6% and the “T@550/T@525 Light Transmittance Ratio” value amounted to 93%. In addition, in data set [2], the “Solubility 0.1%” value is listed as “∘”, the “Solubility 0.2%” value is listed as “∘” and the “Solubility 1.0%” value is listed as “∘”.

On to `CCCCCCCCCCOc1ccc(-c2c3nc(c(-c4ccc(OCCCCCCCCCC)cc4)c4[nH]c(c(-c5ccc(OCCCCCCCCCC)cc5)c5nc(c(-c6ccc(OCCCCCCCCCC)cc6)c6[nH]c2c2c7cccc8cccc(c87)c62)c2c6cccc7cccc(c76)c52)c2c5cccc6cccc(c65)c42)c2c4cccc5cccc(c54)c32)cc1` [1-A], for which, in data set [1] (in chloroform), the Maximum Absorption Wavelength was found to be 567 nm and the gram absorption coefficient was 113,000.

With `c1coc(-c2c3nc(c(-c4ccco4)c4[nH]c(c(-c5ccco5)c5nc(c(-c6ccco6)c6[nH]c2c2c7cccc8cccc(c87)c62)c2c6cccc7cccc(c76)c52)c2c5cccc6cccc(c65)c42)c2c4cccc5cccc(c54)c32)c1` [2-A], in data set [1] (in chloroform), the Maximum Absorption Wavelength worked out at 563 nm and the gram absorption coefficient is 110,000.

As for `CC(C)(C)c1ccc(C2=c3nc(c4c5cccc6cccc(c3=4)c65)C(c3ccc(C(C)(C)C)cc3)=c3c4c(c5[n]3[Cu][n]3c2c2c(c3C(c3ccc(C(C)(C)C)cc3)=c3nc(c6c7cccc8cccc(c3=6)c87)C=5c3ccc(C(C)(C)C)cc3)-c3cccc5cccc-2c35)-c2cccc3cccc-4c23)cc1` [3-D], the “Absorption Retention” value in data set [3] is on record as 92%. For the same compound, in data set [1] (chloroform solvent), the “Maximum Absorption Wavelength” value came out at 546 nm; the “Ratio of Absorption Coefficient” value worked out at 2.2. In data set [4], the “Light Transmittance at 525 nm” value was determined as 59.7%, the “Light Transmittance at 550 nm” value stood at 38.1% and the “T@550/T@525 Light Transmittance Ratio” value was 64%.
